Laboratory results taken from ChEMBL document CHEMBL3352097, “Small molecule inhibitors targeting activator protein 1 (AP-1)” (J Med Chem, 2014).

Target: Nuclear factor NF-kappa-B complex (Homo sapiens, UniProt Q00653+P19838+Q04206)
Assay: Inhibition of NF-kappaB-mediated transcriptional activation in human Jurkat cells by luciferase reporter gene assay
Format: cell-based

Chain of Nuclear factor NF-kappa-B complex (P19838 1-433 limits assumed): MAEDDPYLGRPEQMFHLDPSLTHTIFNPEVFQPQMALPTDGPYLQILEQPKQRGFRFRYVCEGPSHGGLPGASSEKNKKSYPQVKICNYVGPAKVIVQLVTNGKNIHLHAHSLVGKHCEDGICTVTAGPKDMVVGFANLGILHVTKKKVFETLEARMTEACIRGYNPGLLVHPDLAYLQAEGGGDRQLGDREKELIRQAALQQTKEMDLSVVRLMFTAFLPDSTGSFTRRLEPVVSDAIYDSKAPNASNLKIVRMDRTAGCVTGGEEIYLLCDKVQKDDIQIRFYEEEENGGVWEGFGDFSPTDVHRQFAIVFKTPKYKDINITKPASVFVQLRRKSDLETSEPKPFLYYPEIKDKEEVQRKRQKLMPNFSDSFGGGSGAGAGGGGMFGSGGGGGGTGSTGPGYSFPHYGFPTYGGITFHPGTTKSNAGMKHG
Chain of Nuclear factor NF-kappa-B complex (Q00653 1-454 limits assumed): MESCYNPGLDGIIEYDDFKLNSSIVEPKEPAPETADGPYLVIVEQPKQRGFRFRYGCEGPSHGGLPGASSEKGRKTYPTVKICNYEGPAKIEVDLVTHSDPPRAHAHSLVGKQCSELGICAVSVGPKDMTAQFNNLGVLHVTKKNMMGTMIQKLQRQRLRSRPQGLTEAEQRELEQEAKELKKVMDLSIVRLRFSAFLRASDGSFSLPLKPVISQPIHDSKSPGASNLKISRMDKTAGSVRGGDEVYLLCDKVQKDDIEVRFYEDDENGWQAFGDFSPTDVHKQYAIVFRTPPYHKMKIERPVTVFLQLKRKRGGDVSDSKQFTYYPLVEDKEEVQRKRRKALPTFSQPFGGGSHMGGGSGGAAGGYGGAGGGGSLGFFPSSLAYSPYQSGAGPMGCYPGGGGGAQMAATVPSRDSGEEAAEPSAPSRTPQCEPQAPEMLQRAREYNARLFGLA
Chain of Nuclear factor NF-kappa-B complex (Q04206 whole entry): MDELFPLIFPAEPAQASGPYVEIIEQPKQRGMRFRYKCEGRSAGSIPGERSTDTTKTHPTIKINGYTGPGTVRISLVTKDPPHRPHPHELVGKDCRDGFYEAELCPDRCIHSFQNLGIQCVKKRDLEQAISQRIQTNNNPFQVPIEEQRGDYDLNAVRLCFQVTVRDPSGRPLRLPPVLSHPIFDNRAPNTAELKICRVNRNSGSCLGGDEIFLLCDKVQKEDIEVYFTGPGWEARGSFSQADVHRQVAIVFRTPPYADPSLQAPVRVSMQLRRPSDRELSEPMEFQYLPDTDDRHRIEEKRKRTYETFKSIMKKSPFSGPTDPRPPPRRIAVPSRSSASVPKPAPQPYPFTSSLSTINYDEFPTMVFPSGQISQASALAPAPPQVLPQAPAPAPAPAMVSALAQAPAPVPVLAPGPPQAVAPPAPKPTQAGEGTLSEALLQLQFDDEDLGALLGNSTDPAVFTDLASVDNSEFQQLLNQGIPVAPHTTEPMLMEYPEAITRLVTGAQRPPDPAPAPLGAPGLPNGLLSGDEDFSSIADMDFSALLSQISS

Point of comparison: `CCOC(=O)c1cnc(-c2cccs2)nc1NN1C(=O)C=C(C)C1=O`, IC50 20 nM. Against it:
- Cc1nc(Cl)ncc1C(=O)Nc1cc(C(F)(F)F)cc(C(F)(F)F)c1 — 2.5-fold higher, 50 nM
- CCOC(=O)c1cnc(C(F)(F)F)nc1NN1C(=O)C=C(C)C1=O — 50-fold higher, 1000 nM
- CCOC(=O)c1cnc(-c2ccccc2)nc1NN1C(=O)C=C(C)C1=O — 5-fold higher, 100 nM
- O=C(Nc1cc(C(F)(F)F)cc(C(F)(F)F)c1)c1nnc(Cl)cc1C(F)(F)F — 500-fold higher, 10000 nM
- O=C(Nc1cc(C(F)(F)F)cc(C(F)(F)F)c1)c1cnc(F)nc1C(F)(F)F — 20-fold higher, 400 nM
- O=C(Nc1cc(C(F)(F)F)cc(C(F)(F)F)c1)c1cnc(Cl)nc1Cl — 30-fold higher, 600 nM

Target: Transcription factor Jun (Mus musculus) (UniProt P05627)
Sequence (P05627 whole entry): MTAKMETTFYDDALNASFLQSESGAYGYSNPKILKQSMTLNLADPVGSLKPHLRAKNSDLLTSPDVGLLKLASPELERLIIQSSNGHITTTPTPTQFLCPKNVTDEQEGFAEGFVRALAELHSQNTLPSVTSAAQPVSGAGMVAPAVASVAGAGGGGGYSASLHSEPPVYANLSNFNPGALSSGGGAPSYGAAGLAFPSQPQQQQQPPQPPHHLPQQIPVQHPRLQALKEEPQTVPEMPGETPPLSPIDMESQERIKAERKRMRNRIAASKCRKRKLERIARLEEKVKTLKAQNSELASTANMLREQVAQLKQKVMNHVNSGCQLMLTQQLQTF
Assay: Inhibition of AP-1-mediated transcriptional activation in lipopolysaccharide-stimulated mouse RAW 264.7 cells assessed ratio of luciferase activity normalized to Renilla luciferase activity by luciferase reporter gene assay

Point of comparison: `C[C@@]12CCC[C@@](C)(C(=O)O)[C@H]1CC[C@@]13CC(=O)O[C@@](CO)(CC[C@H]12)C3`, Ratio 2.58. Against it:
- C[C@@]12CC[C@@H]3[C@@](CC[C@H]4[C@@]3(C)[C@@H](O)CC[C@@]4(C)C(=O)O)(COC1=O)C2 — higher, 2.66
- C[C@@]12CC[C@@H]3[C@@](CC1=O)(C2)[C@@H](O)C[C@H]1[C@@]3(C)[C@@H](O)CC[C@@]1(C)C(=O)O — higher, 2.98
- C[C@@]12CC[C@@H]3[C@@](CC[C@H]4[C@@]3(C)CCC[C@@]4(C)C(=O)O)(C/C1=N\O)C2 — higher, 4.87
- C[C@@]12CC[C@@H]3[C@@](CC[C@H]4[C@@]3(C)CCC[C@@]4(C)C(=O)O)(CC(=O)O1)C2 — lower, 2.38
- C[C@@]12CC[C@@H]3[C@@](CC[C@H]4[C@@]3(C)CCC[C@@]4(C)C(=O)O)(COC1=O)C2 — lower, 1.88
- C[C@@H]1C[C@H]2[C@@H]3CCC4=CC(=O)C=C[C@]4(C)[C@@]3(F)[C@@H](O)C[C@]2(C)[C@@]1(O)C(=O)CO — lower, 2.33
- C[C@@]12CC[C@H]3[C@]4(C)CCC[C@@](C)(C(=O)O)[C@H]4C[C@H](O)[C@]3(CC(=O)O1)C2 — lower, 2.39
- C[C@@]12CC[C@H]3[C@]4(C)CCC[C@@](C)(C(=O)O)[C@H]4C[C@H](O)[C@]3(CC1=O)C2 — higher, 2.69
- CC1=C[C@@]2(CC#N)CC[C@H]3[C@@](C)(CCC[C@@]3(C)C(=O)O)[C@@H]2CC1 — higher, 2.85
- C[C@@]12CC[C@@H]3[C@@](C/C1=N\O)(C2)[C@H](O)C[C@H]1[C@@]3(C)[C@@H](O)CC[C@@]1(C)C(=O)O — higher, 2.69
- C[C@@]12CCC[C@@](C)(C(=O)O)[C@H]1CC[C@]13CC(=O)O[C@](C)(C1)[C@H](O)C[C@H]32 — higher, 2.73
- CC1=CC[C@@H]2[C@](CC#N)(CC[C@H]3[C@@]2(C)CCC[C@@]3(C)C(=O)O)C1 — lower, 2.22

Target: Transcription factor Jun (Homo sapiens, UniProt P05412)
Sequence (P05412 whole entry): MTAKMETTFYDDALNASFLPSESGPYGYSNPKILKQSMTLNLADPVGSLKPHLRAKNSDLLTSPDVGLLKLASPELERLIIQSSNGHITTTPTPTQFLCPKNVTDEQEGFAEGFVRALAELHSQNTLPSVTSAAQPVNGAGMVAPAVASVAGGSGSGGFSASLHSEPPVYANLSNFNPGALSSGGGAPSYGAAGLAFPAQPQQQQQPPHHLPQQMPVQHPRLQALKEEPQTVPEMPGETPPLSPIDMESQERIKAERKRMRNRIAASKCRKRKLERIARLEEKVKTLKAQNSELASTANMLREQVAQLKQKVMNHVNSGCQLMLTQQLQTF
Assay: Inhibition of AP-1-mediated transcriptional activation in human Jurkat cells by luciferase reporter gene assay
Format: cell-based

Point of comparison: `COc1ccc2nc(-c3cccs3)nc(NN3C(=O)C=C(C)C3=O)c2c1`, IC50 3 nM. Against it:
- CC1=CC(=O)N(Nc2ncc(C(=O)OC(C)(C)C)c(C(F)(F)F)n2)C1=O — 70-fold higher, 210 nM
- CCOC(=O)c1cnc(-c2cccs2)nc1NN1C(=O)C=C(C)C1=O — 6.7-fold higher, 20 nM
- CCOC(=O)c1cnc(C(F)(F)F)nc1NN1C(=O)C=C(C)C1=O — 330-fold higher, 1000 nM
- CCOC(=O)c1cnc(N(C)N2C(=O)C=C(C)C2=O)nc1CC — 12-fold higher, 35 nM
- O=C1Nc2cc(C(F)(F)F)ccc2Nc2nc(Cl)ncc21 — 3300-fold higher, 10000 nM
- CCOC(=O)c1cnc(-c2ccccc2)nc1NN1C(=O)C=C(C)C1=O — 33-fold higher, 100 nM
- O=C(Nc1cc(C(F)(F)F)cc(C(F)(F)F)c1)c1nnc(Cl)cc1C(F)(F)F — 3300-fold higher, 10000 nM
- CC1=CC(=O)N(Nc2ncc(C(=O)c3ccccc3)c(C(F)(F)F)n2)C1=O — 33-fold higher, 98 nM
- CCOC(=O)c1cnc(N(C)N2C(=O)C=C(C)C2=O)nc1C(F)(F)F — 100-fold higher, 300 nM
- CCOC(=O)c1cnc(NN2C(=O)C=C(C)C2=O)nc1-c1ccc(C)s1 — 15-fold higher, 45 nM
- CCc1nc(NN2C(=O)C=C(C)C2=O)ncc1-c1coc(C)n1 — 280-fold higher, 830 nM
- O=C(c1cnc(Cl)nc1C(F)(F)F)N1COCc2ccc(C(F)(F)F)cc21 — 3300-fold higher, 10000 nM
- Cc1cc(C(=O)Nc2ccc(C(F)(F)F)cc2C(F)(F)F)nc(Cl)n1 — higher, > 10000 nM
- O=C(Nc1ccc(C(F)(F)F)cc1C(F)(F)F)c1cc(C(F)(F)F)nc(Cl)n1 — higher, > 10000 nM
- CCOC(=O)c1cnc(NN2C(=O)C=C(C)C2=O)nc1CC — 130-fold higher, 400 nM
- CC1=CC(=O)N(Nc2ncc(-c3coc(C)n3)c(-c3cccs3)n2)C1=O — 250-fold higher, 760 nM
- CCOC(=O)c1cnc(NN2C(=O)C=C(C)C2=O)nc1C(F)(F)F — 670-fold higher, 2000 nM
- CC(=O)c1cnc(NN2C(=O)C=C(C)C2=O)nc1C(F)(F)F — 1500-fold higher, 4400 nM
- Cc1nc(Cl)ncc1C(=O)Nc1cc(Cl)cc(Cl)c1 — 170-fold higher, 500 nM
